Experiments:
PTPN1 = conditions: read-out: IC50, PTPN1 inhibition (previous reports); cited from earlier work
PTPN2 = conditions: read-out: KM for PTPN2; cited from earlier work
[1] = tested on: PTP activity in single A431 cells; experiment: Single A431 cell PTP activity; type: cell-based, human; conditions: single A431 cells pretreated with 1 mM; Q1 = 36%, Q3 = 77%

Molecule | IC50 (PTPN1) | Km (PTPN2) | median phosphorylation remaining in 60 s (inhibition of dephosphorylation) [1]
O=C1C=Cc2ccccc2C1=O [1,2-naphthoquinone] | 1.6 to 5 µM |  | 
N[C@@H](Cc1ccc(OP(=O)(O)O)cc1)C(=O)O [phosphotyrosine] |  | 300 µM | 
sodium pervanadate | 0.4 µM |  | 53%

Reference: article PMC3704224 (Analytical chemistry, 2013)
